Reference: patent publication US10011814B2, “Salt formulations for the fermentation of marine microorganisms” (Triphase Research and Development I Corp., priority 2006, dated 2018)

Tested on: Salinispora tropica NPS021184
Assay: Production of Salinosporamide A and analogs in shake flask or tube culture; titers by HPLC of EtOAc extract
Conditions: for % Increase (+) or % decrease (−) of maximum titer: Ex.1 Table 1; for % Increase (+) or % decrease (−) of max titer: Ex.1 Table 2; for % increase/decrease of titer / relative % change (of % relative to Sal A): Ex.2 Table 3; for % Increase (+) or % decrease (−) of average max titer: Ex.2 Table 4
Description: Seed cultures were prepared by inoculating frozen stock of Salinispora tropica NPS021184 into seed medium.
The first seed cultures (either 10 mL medium in a 50-mL tube or 100 mL medium in a 500-mL Erlenmeyer flask) were incubated for 3 to 4 days before inoculating into the second seed media with the same composition as the first seed cultures. The second seed cultures (100 mL medium in a 500-mL Erlenmeyer flask) were incubated for two days before inoculating into the production medium (100 mL medium in a 500-mL Erlenmeyer flask).
The chemically defined salt formulation included: […]
3.5 mL of the fermentation culture was mixed with equal volume of EtOAc in an extraction tube to extract the various metabolites from the production culture. The mixture was shaken on a shaker for one hr. An aliquot of the extract (1 mL) was removed and dried under a stream of nitrogen. The dried extract was stored at −20° C. freezer before HPLC analysis. The dried extract was resuspended in 320 μL DMSO and injected into HPLC using the 00TF14 method for analysis.
The production of Salinosporamide A, NPI-0047 and NPI-2065 was monitored by Agilent HP1100 HPLC using an ACE C-18 reversed-phase column (4.6×150 mm), and solvent system consisting of water (0.01% TFA) as solvent A and acetonitrile (0.01% TFA) as solvent B. The elution was started at 100% solvent A for 1 min, 100% solvent A to 35% solvent A gradient in 7 min, held at 35% solvent A for 11 min, 35% solvent A to 100% solvent B in 8 min and held at 100% solvent B for 9 min at a flow rate of 1.5 mL/min with the detector wavelength set at 210 nm and column temperature 35° C.
The first seed cultures (either 10 mL medium in a 50-mL tube or 100 ml medium in a 500-ml Erlenmeyer flask) were incubated for 3 to 4 days before inoculating into the second seed media with the same composition as the first seed cultures. The second seed cultures (100 mL medium in a 500-mL Erlenmeyer flask) were incubated for two days before inoculating into the production medium (100 mL medium in a 500-mL Erlenmeyer flask).
The first seed cultures (either 10 mL medium in a 50-ml tube or 100 mL medium in a 500-mL Erlenmeyer flask) were incubated for 3 to 4 days before inoculating into the second seed media with the same composition as the first seed cultures. The second seed cultures (100 mL medium in a 500-mL Erlenmeyer flask) were incubated for two days before inoculating into production medium (100 mL medium in a 500-mL Erlenmeyer flask).
3.5 mL of the fermentation culture was mixed with equal volume of EtOAc in an extraction tube to extract the various metabolites from the production culture. The mixture was shaken for 1 hr. An aliquot of the extract (1 mL) was removed and dried under a stream of nitrogen. The dried extract was stored at −20° C. freezer before HPLC analysis. The dried extract was resuspended in […] DMSO and injected into HPLC using the TFS7 method for analysis.
The production of Salinosporamide A, NPI-0047 and NPI-2065 was monitored by Agilent HP1100 HPLC using an ACE C-18 reversed-phase column (4.6×150 mm), and isocratic solvent system consisting of 67% water (0.01% TFA) and 33% acetonitrile (0.01% TFA). The flow rate was 1.5 mL/min for 15 min with the detector wavelength set at 210 nm and column temperature 35° C.
3.5 mL of the fermentation culture was mixed with equal volume of EtOAc in an extraction tube to extract the various metabolites from the production culture. The mixture was shaken on the shaker for 1 hr. An aliquot of the extract (1 mL) was removed and dried under a stream of nitrogen. The dried extract was stored at −20° C. freezer before HPLC analysis. The dried extract was resuspended in 320 μL DMSO and injected into HPLC using the TFS7 method for analysis. […]

[1] = 104 μg/L CoCl2·6H2O in production medium vs no addition
[2] = 1.04 mg/L CoCl2·6H2O in production medium vs no addition
[3] = 10.4 mg/L CoCl2·6H2O in production medium vs no addition
[4] = 2.6 μg/L CoCl2·6H2O in production medium vs control
[5] = 5.2 μg/L CoCl2·6H2O in production medium vs control
[6] = 6.5 μg/L CoCl2·6H2O in production medium vs control
[7] = 13 μg/L CoCl2·6H2O in production medium vs control
[8] = 26 μg/L CoCl2·6H2O in production medium vs control
[9] = 52 μg/L CoCl2·6H2O in production medium vs control
[10] = 104 μg/L CoCl2·6H2O in production medium vs control
[11] = 208 μg/L CoCl2·6H2O in production medium vs control
[12] = 416 μg/L CoCl2·6H2O in production medium vs control
[13] = seed CoCl2·6H2O 0 μg/L (reference)
[14] = seed CoCl2·6H2O 2.6 μg/L vs 0 μg/L
[15] = seed CoCl2·6H2O 5.2 μg/L vs 0 μg/L
[16] = seed CoCl2·6H2O 13 μg/L vs 0 μg/L
[17] = seed CoCl2·6H2O 26 μg/L vs 0 μg/L
[18] = seed CoCl2·6H2O 52 μg/L vs 0 μg/L
[19] = seed CoCl2·6H2O 104 μg/L vs 0 μg/L
[20] = seed CoCl2·6H2O 208 μg/L vs 0 μg/L
[21] = seed CoCl2·6H2O 416 μg/L vs 0 μg/L
[22] = CoCl2·6H2O seed 0 / production 52 μg/L vs no cobalt
[23] = CoCl2·6H2O seed 208 μg/L / production 52 μg/L vs no cobalt
[24] = Ex.2, cobalt in seed and production media vs cobalt in production medium only

## C[C@@]12OC(=O)[C@]1([C@@H](O)[C@@H]1C=CCCC1)NC(=O)[C@H]2CCCl [NPI-2065]
[1]
  % Increase (+) or % decrease (−) of maximum titer: −21.0%
[2]
  % Increase (+) or % decrease (−) of maximum titer: −12.2%
[3]
  % Increase (+) or % decrease (−) of maximum titer: −30.8%
[4]
  % Increase (+) or % decrease (−) of max titer: −7.6%
[5]
  % Increase (+) or % decrease (−) of max titer: −1.5%
[6]
  % Increase (+) or % decrease (−) of max titer: −6.1%
[7]
  % Increase (+) or % decrease (−) of max titer: −1.5%
[8]
  % Increase (+) or % decrease (−) of max titer: +3.0%
[9]
  % Increase (+) or % decrease (−) of max titer: −4.6%
[10]
  % Increase (+) or % decrease (−) of max titer: −1.5%
[11]
  % Increase (+) or % decrease (−) of max titer: −6.1%
[12]
  % Increase (+) or % decrease (−) of max titer: −15.2%
Ex.14, vitamin B12 in Instant Ocean based medium
  reduction of concentration in the fermentation: 30%
Ex.15, Vitamin B12 or CoCl2·6H2O at 0.22 μM in salt formulation based medium
  reduction of concentration in the fermentation: no reduction
Ex.1, 416 μg/L, highest cobalt concentration tested in production medium
  maximum inhibition of production: 15%
Ex.1, 10.4 mg/L CoCl2·6H2O in production medium vs none
  inhibition of production: 30.8%
[13]
  % increase/decrease of titer: 0.0%
  relative % change (of % relative to Sal A): 0.0%
[14]
  % increase/decrease of titer: 1.7%
  relative % change (of % relative to Sal A): 0.0%
[15]
  % increase/decrease of titer: 4.2%
  relative % change (of % relative to Sal A): −0.5%
[16]
  % increase/decrease of titer: 5.9%
  relative % change (of % relative to Sal A): 3.5%
[17]
  % increase/decrease of titer: 23.1%
  relative % change (of % relative to Sal A): 3.5%
[18]
  % increase/decrease of titer: 17.7%
  relative % change (of % relative to Sal A): 7.9%
[19]
  % increase/decrease of titer: 15.5%
  relative % change (of % relative to Sal A): −0.5%
[20]
  % increase/decrease of titer: 19.7%
  relative % change (of % relative to Sal A): −1.4%
[21]
  % increase/decrease of titer: 6.2%
  relative % change (of % relative to Sal A): −3%
[22]
  % Increase (+) or % decrease (−) of average max titer: −37.2%
[23]
  % Increase (+) or % decrease (−) of average max titer: −44.9%
Ex.2, 208 μg/L CoCl2·6H2O in seed medium, 52 μg/L in production medium vs no cobalt in seed
  relative decrease in production (relative to Salinosporamide A): 1.4%
Ex.2, cobalt in both seed (208 μg/L) and production (52 μg/L) media vs media without cobalt
  reduction of production: 44.9%
[24]
  reduction of production: 12.2%

## C[C@@]12OC(=O)[C@]1([C@@H](O)[C@@H]1C=CCCC1)NC(=O)[C@@H]2CCCl [Salinosporamide A]
[1]
  % Increase (+) or % decrease (−) of maximum titer: 1.5%
[2]
  % Increase (+) or % decrease (−) of maximum titer: 2.2%
[3]
  % Increase (+) or % decrease (−) of maximum titer: −1.4%
[4]
  % Increase (+) or % decrease (−) of max titer: +1.1%
[5]
  % Increase (+) or % decrease (−) of max titer: −8.9%
[6]
  % Increase (+) or % decrease (−) of max titer: +1.2%
[7]
  % Increase (+) or % decrease (−) of max titer: −0.3%
[8]
  % Increase (+) or % decrease (−) of max titer: −4.0%
[9]
  % Increase (+) or % decrease (−) of max titer: −4.5%
[10]
  % Increase (+) or % decrease (−) of max titer: −3.0%
[11]
  % Increase (+) or % decrease (−) of max titer: +0.2%
[12]
  % Increase (+) or % decrease (−) of max titer: −8.5%
Ex.11, low sodium medium (9.3 mM sodium, SHY.KCD) vs high sodium medium (413 mM sodium, SHY.B4C)
  maximum production as % of the high sodium medium: about 75%
[13]
  % increase/decrease of titer: 0.0%
[14]
  % increase/decrease of titer: 1.7%
[15]
  % increase/decrease of titer: 4.7%
[16]
  % increase/decrease of titer: 2.5%
[17]
  % increase/decrease of titer: 20.3%
[18]
  % increase/decrease of titer: 10.7%
[19]
  % increase/decrease of titer: 15.9%
[20]
  % increase/decrease of titer: 20.8%
[21]
  % increase/decrease of titer: 9.2%
[22]
  % Increase (+) or % decrease (−) of average max titer: +10.1%
[23]
  % Increase (+) or % decrease (−) of average max titer: 33.9%
CoCl2·6H2O seed 208 μg/L / production 52 μg/L vs no cobalt, listed as SALINOSPORAMIDE A
  % Increase (+) or % decrease (−) of average max titer: +33.9%
Ex.23, low chloride medium (LoCl.PD) vs saline medium
  concentration as % of the saline fermentation condition: about 35%
[24]
  increase of production: 21.6%
